Source: US10813903B2, “Compositions comprising 15-HEPE and methods of using the same” (Afimmune Limited, priority 2013, dated 2020)

Tested on: STAM model of Non-alcoholic Steatohepatitis
Assay: in vivo efficacy study of 15-OHEPA and EPA in STAM model of non-alcoholic steatohepatitis
Set-up: species or system C57BL/6 mice
Conditions: for liver weight as compared to the vehicle control: FIG. 1.2; for NAFLD Activity score (NAS) as compared to the vehicle control: HE staining, FIGS. 2.1 and 2.2
From the text: The purpose of this study was to examine the effects of 15-OHEPA and EPA in the STAM model of Non-alcoholic Steatohepatitis. Pathogen-free15-day-pregnant C57BL/6 mice were obtained from Charles River Laboratories in Japan Inc. (Kanagawa, Japan). NASH was established in male mice by a single subcutaneous injection of streptozotocin (STZ) (Sigma, USA) after birth and feeding with a high fat diet (HFD; CLEA) Japan, Japan) ad libitum after 4 weeks of age (day 28±2). Mice were randomized into 5 groups of 8 mice at 5 weeks of age (day 35±2) the day before the start of treatment. During the treatment period, individual body weight was measured daily as well as clinical signs of behavior and survival. Group 1 (Vehicle): Eight NASH mice were orally administered vehicle [olive oil] in a volume of 10 mL/kg once daily from 5 to 9 weeks of age. Group 2 (15-OHEPA 50 mg/kg): Eight NASH mice were orally administered vehicle supplemented with 15-OHEPA at a dose of 50 mg/kg once daily from 5 to 9 weeks of age. Group 3 (15-OHEPA 500 mg/kg): Eight NASH mice were orally administered vehicle supplemented with 15-OHEPA at a dose of 500 mg/kg once daily from 5 to 9 weeks of age. Group 4 (EPA 500 mg/kg): Eight NASH mice were orally administered vehicle supplemented with EPA at a dose 500 mg/kg once daily from 5 to 9 weeks of age. Group 5 (positive control): Eight NASH mice were orally administered pure water supplemented with Telmisartan at a dose of 10 mg/kg once daily from 5 to 9 weeks of age. At 9 weeks of age, all mice were sacrificed and the following data was recorded; • Individual liver weight • Liver to body weight ratio Histopathological analyses of liver sections were performed using HE staining (to estimate NAFLD Activity score). For HE staining, sections were cut from paraffin blocks of liver tissue prefixed in Bouin's solution and stained with Lillie-Mayer's Hematoxylin (Muto Pure Chemicals, Japan) and eosin solution (Wako Pure Chemical Industries). NAFLD Activity score (NAS) was calculated according to the criteria of Kleiner (Kleiner D E. et al., Hepatology, 2005; 41:1313). Statistical tests were performed using Bonferroni Multiple Comparison Test. P values <0.05 were considered statistically significant.

[1] = 15-OHEPA 500 mg/kg oral once daily from 5 to 9 weeks of age
[2] = positive control, Telmisartan 10 mg/kg oral once daily from 5 to 9 weeks of age

CCC=CCC(O)C=CC=CCC=CCC=CCCCC(=O)O (centres unmarked) [15-OHEPA, 15-Hydroxy-eicosa-5,8,11,13,17-pentaenoic acid]
liver weight as compared to the vehicle control [1]: significant reduction
NAFLD Activity score (NAS) as compared to the vehicle control [1]: significantly decreased
potency in the treatment of FLD relative to EPA (summary statement): more potent than EPA

CCCc1nc2c(C)cc(-c3nc4ccccc4n3C)cc2n1Cc1ccc(-c2ccccc2C(=O)O)cc1 [telmisartan, Telmisartan, reference compound]
liver weight as compared to the vehicle control [2]: significant reduction
NAFLD Activity score (NAS) as compared to the vehicle control [2]: significantly decreased
